This is an account of results in PubChem BioAssay AID977619 (Broad Institute, 2014).

“And” between values parts separate entries of the source, which are not always exact repeats. Identical values can stand only once. The source made the active and inactive calls.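 The calls were made as follows: active = viability signal falls, with AC50 at or below a set limit tied to the top tested dose; inconclusive = flat curve with moderate signal loss, or poor fit; inactive = the rest, including rising signal.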

The term AC50 denotes the concentration giving half of the maximal activity seen.

One assay relates to HepG2 viability, CellTiter-Glo ATP luminescence, 72 h. In words: HepG2 cell cytotoxicity, dose response, cytotoxicity control, CellTiter-Glo luminescence, dry powder, set 13 (AID 977619).
Conditions: not given
In the case of `Cc1csc(NC(=O)c2cc(S(=O)(=O)N(C)C)ccc2N2CCCC2)n1`, the AC50 is > 60 µM (inactive).
As to `Cc1cnc(NC(=O)c2cc(S(=O)(=O)N3CCCC3)ccc2N2CCCC2)s1`, the AC50 is > 60 µM (inactive).

Tested on in another assay: not listed separately
The description is as above. As to conditions: HepG2 viability, CellTiter-Glo ATP luminescence, 72 h; at 30 µM (top of the series). A general note: In ATP-based viability assays light output follows the ATP content of the culture.
In the case of `Cc1ccccc1NC(=O)c1cc(S(=O)(=O)N(C)C)ccc1N1CCCC1`, the activity change, negative = cytotoxicity was -8.5% (inactive).
Regarding `CN(C)S(=O)(=O)c1ccc(N2CCCC2)c(C(=O)N2CCOCC2)c1`, the activity change, negative = cytotoxicity was -23.2% (inactive).
With `CN(C)S(=O)(=O)c1ccc(N2CCCC2)c(C(=O)Nc2nccs2)c1`, the activity change, negative = cytotoxicity was -14.2% (inactive).
For the compound `CN(C)CCCN(Cc1cc2ccccc2[nH]c1=O)C(=O)NCc1ccccc1`, the activity change, negative = cytotoxicity was -20.2% (inactive).
Consider `CN(C)S(=O)(=O)c1ccc(N2CCCC2)c(C(=O)NC2CCCCC2)c1`, for which the activity change, negative = cytotoxicity was -17.5% (inactive).
The same measure, in the same setting: the same measure for `CN(C)S(=O)(=O)c1ccc(N2CCCC2)c(C(=O)Nc2ccccc2F)c1`: 0.657% (inactive); for `COc1ccc2nc(NC(=O)c3cc(S(=O)(=O)N(C)C)ccc3N3CCCC3)sc2c1`: -15% (inactive); for `Cc1cnc(NC(=O)c2cc(S(=O)(=O)N(C)C)ccc2N2CCC2)s1`: -16.2% (inactive).
Take `Cc1cnc(NC(=O)c2cc(S(=O)(=O)N(C)C)ccc2N2CCCC2)s1`: the activity change, negative = cytotoxicity was -11% (inactive) and -24.4% (inactive).
For the compound `Cc1cnc(NC(=O)c2cc(S(=O)(=O)N3CCOCC3)ccc2N2CCCC2)s1`, the activity change, negative = cytotoxicity is -27.5% (inactive).
As for `Cc1ccc(NC(=O)c2cc(S(=O)(=O)N(C)C)ccc2N2CCCC2)cc1`, the activity change, negative = cytotoxicity was -24% (inactive).
Turning to `CCN(CC)S(=O)(=O)c1ccc(N2CCCC2)c(C(=O)Nc2ncc(C)s2)c1`, the activity change, negative = cytotoxicity is -6.49% (inactive).
In the case of `CN(C)S(=O)(=O)c1ccc(N2CCCC2)c(C(=O)Nc2ccccc2Cl)c1`, the activity change, negative = cytotoxicity is 0.028% (inactive).
Regarding `COc1ccccc1NC(=O)c1cc(S(=O)(=O)N(C)C)ccc1N1CCCC1`, the activity change, negative = cytotoxicity was -1.12% (inactive).
Consider `CN(C)S(=O)(=O)c1ccc(N2CCCC2)c(C(=O)Nc2ccncc2)c1`, for which the activity change, negative = cytotoxicity was -16.4% (inactive).
Regarding `CN(C)S(=O)(=O)c1ccc(N2CCCC2)c(C(=O)Nc2ccccc2)c1`, the activity change, negative = cytotoxicity is -16.8% (inactive).
`Cc1nnc(NC(=O)c2cc(S(=O)(=O)N(C)C)ccc2N2CCCC2)s1`: the activity change, negative = cytotoxicity is -4.85% (inactive).
Same read-out and setting: to `CN(C)S(=O)(=O)c1ccc(N2CCCC2)c(C(=O)Nc2cccc(F)c2)c1` belongs -10% (inactive).
`COc1cccc2sc(NC(=O)c3cc(S(=O)(=O)N(C)C)ccc3N3CCCC3)nc12`: the activity change, negative = cytotoxicity is -0.843% (inactive).
As for `Cc1cnc(NC(=O)c2cc(S(=O)(=O)N(C)C)ccc2N2CCNCC2)s1`, the activity change, negative = cytotoxicity was 2.09% (inactive).
On the same count and under the same terms, to `Cc1cnc(NC(=O)c2cccc(S(=O)(=O)N(C)C)c2)s1` belongs 0.262% (inactive).
As for `Cc1nc(NC(=O)c2cc(S(=O)(=O)N(C)C)ccc2N2CCCC2)n[nH]1`, the activity change, negative = cytotoxicity is 7.89% (inactive).
For `Cc1cnc(NC(=O)c2cc(S(=O)(=O)N(C)C)ccc2C2CCCC2)s1`, the activity change, negative = cytotoxicity was 1.56% (inactive).
As for `Cc1cnc(NC(=O)c2cc(S(=O)(=O)N(C)C)ccc2N2CCCCC2)s1`, the activity change, negative = cytotoxicity was -24.5% (inactive).
As to `Cc1cnc(NC(=O)c2cc(S(=O)(=O)N(CC(C)C)CC(C)C)ccc2N2CCCC2)s1`, the activity change, negative = cytotoxicity was 2.42% (inactive).
On to `COc1ccc2sc(NC(=O)c3cc(S(=O)(=O)N(C)C)ccc3N3CCCC3)nc2c1`, for which the activity change, negative = cytotoxicity is 12.7% (inactive).
For the compound `Cc1cnc(NC(=O)c2cc(S(=O)(=O)N(C)c3ccccc3)ccc2N2CCCC2)s1`, the activity change, negative = cytotoxicity was 2.13% (inactive).
Still for that read-out and setting: the same measure for `CN(C)S(=O)(=O)c1ccc(N2CCCC2)c(C(=O)Nc2ccc(Br)cc2)c1`: 3.71% (inactive).
Consider `Cc1cnc(NC(=O)c2cc(S(=O)(=O)NCc3ccccc3)ccc2N2CCCC2)s1`, for which the activity change, negative = cytotoxicity was -8.91% (inactive).
Turning to `COc1ccc(NC(=O)c2cc(S(=O)(=O)N(C)C)ccc2N2CCCC2)cc1`, the activity change, negative = cytotoxicity is -5.62% (inactive).
As to `CCN(CC)c1ccc(S(=O)(=O)N(C)C)cc1C(=O)Nc1ncc(C)s1`, the activity change, negative = cytotoxicity is -14.5% (inactive).
Consider `Cc1cnc(NC(=O)c2cc(S(=O)(=O)N3CCCCC3)ccc2N2CCCC2)s1`, for which the activity change, negative = cytotoxicity was -1.49% (inactive).
The same measure, in the same setting: to `CN(C)S(=O)(=O)c1ccc(N2CCCC2)c(C(=O)Nc2nc3ccccc3s2)c1` belongs -28% (inactive).
Regarding `Cc1cnc(NC(=O)c2cc(S(=O)(=O)N(C)C)ccc2N(C)C)s1`, the activity change, negative = cytotoxicity is -8.52% (inactive).
Turning to `CN(C)S(=O)(=O)c1ccc(N2CCCC2)c(C(=O)Nc2cccnc2)c1`, the activity change, negative = cytotoxicity is -8.96% (inactive).
In the case of `CN(C)CCCN(Cc1cc2ccccc2[nH]c1=O)C(=O)Nc1ccccc1`, the activity change, negative = cytotoxicity is -20.2% (inactive).
Same read-out and setting: to `Cc1cnc(NC(=O)c2cc(S(=O)(=O)N3CCNCC3)ccc2N2CCCC2)s1` belongs -16.2% (inactive).
For the compound `CN(C)C(=O)c1cc(S(=O)(=O)N(C)C)ccc1N1CCCC1`, the activity change, negative = cytotoxicity was -5.71% (inactive).
